Reference: patent US8603527B2, “Pharmaceutical formulations of a substituted diaminopurine” (Signal Pharmaceuticals, LLC, priority 2010, dated 2013)
Where two headings read alike, the source gives them in different places.

Experiments:
[1] = Pharmacokinetics (plasma and urine) of ascending multiple oral doses in healthy volunteers; assay type: in vivo, human; conditions: both sexes, human, oral; for AUC: τ = 24 hours (N = 8), read-out: AUC(0-τ); for AUC / AUC(0-inf) / Cmax / concentration at 24 h / CL renal / CL renal at 14 days: geometric mean; for Cmax: read-out: Cmax; for concentration at 24 h: read-out: Ctrough; for CL renal / CL renal at 14 days: urine, read-out: CLR (renal clearance of drug)
Excerpt: Subjects: Forty healthy male and female subjects between the ages of 20 and 50 were enrolled in the study. All subjects were in good health as determined by a medical history, physical examination, 12-lead ECG, serum biochemistry, hematology, urinalysis and virology. Subjects were not permitted to take any prescribed medication within 30 days or non-prescribed medication within 7 days of the first dose administration.
Study Design: This study was a randomized, double-blind, placebo-controlled, ascending-dose trial to evaluate the safety, tolerability and pharmacokinetics (PK) of multiple oral doses of Compound I. Subjects were enrolled into 1 of the 4 cohorts, 10 subjects per cohort (active:placebo=8:2). Subjects received a multiple oral dose of 25, 50, 100, or 200 mg unformulated Compound I in a capsule, or matching placebo, once daily (QD) for 14 days.
Assessments: Safety and tolerability were assessed by adverse event (AE) monitoring, clinical laboratory testing, vital sign measurement, 12-lead ECG measurement, concomitant medication assessment, and physical examination. Blood and urine samples were collected to assess the PK profile of Compound I and the S-cis isomer of Compound I. Blood samples (˜5 mL) for plasma PK analysis were collected in K2-EDTA vacutainer tubes to yield approximately 2 mL of plasma at each of the following time points: (i) Day 1: before dosing, and 0.25, 0.5, 1, 1.5, 2, 2.5, 3, 4, 6, 8, 10, 12, 16, and 24 hours after dosing; (ii) Day 3 to Day 9: before dosing; (iii) Day 10: before dosing, and 0.25, 0.5, 1, 1.5, 2, 2.5, 3, 4, 6, 8, 10, 12, and 16 hours after dosing; (iv) Day 11 to Day 13: before dosing; (v) Day 14: before dosing, and 0.25, 0.5, 1, 1.5, 2, 2.5, 3, 4, 6, 8, 10, 12, 16, 24, 48, 72, 96, 120, 144, and 168 hours after dosing. Urine samples for the PK analysis were collected as a single block at: (i) Day 1: before dosing (spot collection), 0 to 8, 8 to 16, and 16 to 24 hours after dosing; and (ii) Day 14: 0 to 8, 8 to 16, and 16 to 24 hours after dosing. Both plasma and urine concentrations of Compound I and its S-cis isomer were measured using validated liquid chromatography-tandem mass spectrometry (LC/MS/MS).
Data Analysis: Safety data were summarized using descriptive statistics by treatment. PK parameters for Compound I and its S-cis isomer were calculated using non-compartmental analysis using WinNonlin (Version 5.0.1 or greater; Pharsight Corporation, Mountain View, Calif.). Dose proportionality and dose independence were evaluated by visual inspection. Intra-subject variability was assessed using an ANOVA model using data from Days 10 and 14.

[2] = Oral developmental toxicity study in the rabbit; conditions: female, New Zealand White Hra:(NZW)SPF, rabbit, in vivo, oral
Excerpt: (§1) Additionally, four groups of five animals/group served as toxicokinetic (TK) animals and received the vehicle or test article in the same manner and dose levels as the main study groups. All time-mated females arrived at the laboratory on GD 0, the day evidence of mating was observed.

[3] = system: time-mated female New Zealand White Hra:(NZW)SPF rabbits; assay: Oral developmental toxicity study in the rabbit; conditions: rabbits
Excerpt: as §1

[4] = plasma, 50 mg, 50 mg QD, Day 1, plasma, healthy subjects (N = 8)
[5] = plasma, 50 mg, 50 mg QD, Day 14, plasma, healthy subjects (N = 8)
[6] = plasma, 100 mg, 100 mg QD, Day 1, plasma, healthy subjects (N = 8)
[7] = plasma, 100 mg, 100 mg QD, Day 14, plasma, healthy subjects (N = 8)
[8] = plasma, 200 mg, 200 mg QD, Day 1, plasma, healthy subjects (N = 8)
[9] = plasma, 200 mg, 200 mg QD, Day 14, plasma, healthy subjects (N = 8)

## O[C@H]1CC[C@H](Nc2ncc3nc(Nc4c(F)cc(F)cc4F)n([C@H]4CCOC4)c3n2)CC1 [Compound I, 4-((9-((3S)-tetrahydro-3-furanyl)-8-((2,4,6-trifluorophenyl)amino)-9H-purin-2-yl)amino)-trans-cyclohexanol]
[1]; plasma, 25 mg, 25 mg QD, Day 14, plasma, healthy subjects (N = 8), median, read-out: tmax
  Tmax: 2 h
[1]; plasma, 25 mg, 25 mg QD, Day 14, plasma
  AUC: 4400 ng·h/mL
[1]; plasma, 50 mg, 50 mg QD, Day 1, plasma (N = 8)
  AUC(0-inf): 7750 ng·h/mL
[1]; [4]
  Cmax: 406 ng/mL
  concentration at 24 h: 125 ng/mL
[1]; plasma, 50 mg, 50 mg QD, Day 1, plasma, healthy subjects (N = 8), median, read-out: tmax
  Tmax: 2.3 h
[1]; plasma, 50 mg, 50 mg QD, Day 1, plasma
  AUC: 4560 ng·h/mL
[1]; plasma, 50 mg, 50 mg QD, Day 14, plasma (N = 8)
  AUC(0-inf): 21300 ng·h/mL
[1]; [5]
  Cmax: 740 ng/mL
  concentration at 24 h: 282 ng/mL
[1]; plasma, 50 mg, 50 mg QD, Day 14, plasma, healthy subjects (N = 8), median, read-out: tmax
  Tmax: 2 h
[1]; plasma, 50 mg, 50 mg QD, Day 14, plasma
  AUC: 9810 ng·h/mL
[1]; plasma, 100 mg, 100 mg QD, Day 1, plasma (N = 8)
  AUC(0-inf): 12200 ng·h/mL
[1]; [6]
  Cmax: 637 ng/mL
  concentration at 24 h: 183 ng/mL
[1]; plasma, 100 mg, 100 mg QD, Day 1, plasma, healthy subjects (N = 8), median, read-out: tmax
  Tmax: 2 h
[1]; plasma, 100 mg, 100 mg QD, Day 1, plasma
  AUC: 7300 ng·h/mL
[1]; plasma, 100 mg, 100 mg QD, Day 14, plasma (N = 8)
  AUC(0-inf): 31600 ng·h/mL
[1]; [7]
  Cmax: 880 ng/mL
  concentration at 24 h: 400 ng/mL
[1]; plasma, 100 mg, 100 mg QD, Day 14, plasma, healthy subjects (N = 8), median, read-out: tmax
  Tmax: 1.8 h
[1]; plasma, 100 mg, 100 mg QD, Day 14, plasma
  AUC: 12800 ng·h/mL
[1]; plasma, 200 mg, 200 mg QD, Day 1, plasma (N = 8)
  AUC(0-inf): 27000 ng·h/mL
[1]; [8]
  Cmax: 1440 ng/mL
  concentration at 24 h: 375 ng/mL
[1]; plasma, 200 mg, 200 mg QD, Day 1, plasma, healthy subjects (N = 8), median, read-out: tmax
  Tmax: 1.8 h
[1]; plasma, 200 mg, 200 mg QD, Day 1, plasma
  AUC: 15100 ng·h/mL
[1]; plasma, 200 mg, 200 mg QD, Day 14, plasma (N = 8)
  AUC(0-inf): 48400 ng·h/mL
[1]; [9]
  Cmax: 1740 ng/mL
  concentration at 24 h: 643 ng/mL
[1]; plasma, 200 mg, 200 mg QD, Day 14, plasma, healthy subjects (N = 8), median, read-out: tmax
  Tmax: 1.8 h
[1]; plasma, 200 mg, 200 mg QD, Day 14, plasma
  AUC: 22800 ng·h/mL
[1]; plasma, 25-200 mg QD for 14 days, read-out: mean terminal half-life (t1/2)
  half-life: 25 to 31 h
[1]; plasma, 25-200 mg QD for 14 days, read-out: median tmax
  Tmax: 1 to 2 h
[1]; 25 mg, 25 mg QD, Day 1, urine (n = 8)
  CL renal: 9.5 mL/min
[1]; 25 mg, 25 mg QD, Day 14, urine (n = 8)
  CL renal at 14 days: 13.3 mL/min
[1]; 50 mg, 50 mg QD, Day 1, urine (n = 8)
  CL renal: 10.9 mL/min
[1]; 50 mg, 50 mg QD, Day 14, urine (n = 8)
  CL renal: 11.8 mL/min
[1]; 100 mg, 100 mg QD, Day 1, urine (n = 8)
  CL renal: 12 mL/min
[1]; 100 mg, 100 mg QD, Day 14, urine (n = 8)
  CL renal: 15.4 mL/min
[1]; 200 mg, 200 mg QD, Day 1, urine (n = 8)
  CL renal: 5.5 mL/min
[1]; 200 mg, 200 mg QD, Day 14, urine (n = 8)
  CL renal at 14 days: 8.5 mL/min
[2]
  NOAEL: 20 mg/kg/day
[3]
  NOEL for developmental toxicity: 20 mg/kg/day
  doses at which developmental effects were observed: 40 mg/kg/day
  teratogenicity: teratogenic
[3]; 10 mg/kg/day
  litters with viable fetuses for evaluation on GD 29: 19
  main study pregnancy index: 95%
[3]; 20 mg/kg/day
  litters with viable fetuses for evaluation on GD 29: 20
  main study pregnancy index: 100%
[3]; 40 mg/kg/day
  litters with viable fetuses for evaluation on GD 29: 10
  main study pregnancy index: 95%
[3]; 40 mg/kg/day, GD 29, controls 25%
  litters containing one or more fetuses with a malformation: 70%
